Test results reported in patent publication US20250243180A1, “TARGETED PROTEIN DEGRADATION” (Monte Rosa Therapeutics AG, priority 2023, published 2025).
pEC50, pIC50: −log10 of the molar value. Read-outs that look alike come from different tables or passages of the source.

Key:
CRBN-DDB1 = CRBN-DDB1 (Homo sapiens (Human), UniProt Q96SW2); test: Compound binding to CRBN by HTRF assay
Method in brief: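 HTRF displacement of Cy5-thalidomide probe (100 nM) from His-tagged CRBN-DDB1 (2.5 nM) with anti-His terbium cryptate, in HEPES/NaCl/TCEP/EDTA/Tween20 buffer; 11-point 1:3 dilution series, 30 min at ambient temperature. Signal (665/620 nm) normalized to lenalidomide and DMSO controls; EC50 fitted, Ki by Cheng-Prusoff from geometric mean EC50.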

IL-1β release = IL-1β release in human monocyte-derived macrophages, LPS/nigericin stimulation; format: cell-based; settings: Macrophage, 24 h pre-treatment, LPS 3 h then 10 μM nigericin 1 h, read-out: IL-1b IC50 (NIG)
Description: (§1) Human monocytes were enriched and isolated from a buffy coat of healthy donor whole blood with a RosetteSep™ Human Monocyte Enrichment Cocktail (Cat.No. 15068, StemCell) and Ficoll-Plaque PLUS (Cat.No. H8889, Sigma). Monocytes were differentiated into macrophages by treatment with 100 ng/mL M-CSF for 6 days at 37° C., 5% CO2. Differentiated macrophages were seeded overnight (50,000 cells/well) in 100 µL of medium in a 96-well, white-bottom plate at 37° C., 5% CO2. Cells were treated with a concentration range of MGD for 24 hours prior to stimulation with nigericin. Macrophages were primed with […] LPS for 3 h followed by 1 h stimulation with 10 μM nigericin. Media of stimulated macrophages were collected and assayed for caspase 1 activity directly (Promega G9951), according to manufacturer's instructions. For IL-1β release assay, media of stimulated macrophages were collected and stored at −20° C., then thawed at 4° C. before assaying for IL-1β activity (Promega W6011), according to manufacturer's instructions.

NEK7 = NEK7 (Homo sapiens (Human), UniProt Q8TDX7+Q96SW2); test: NEK7 NanoBiT degradation assay in Cal51 NEK7 NanoBiT cell line; format: cell-based; settings: Cal51 NEK7 NanoBiT cells, 24 hours; for Dmax: CAL-51
Method in brief: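 Cal51 cells with CRISPR knock-in HiBiT-tagged endogenous NEK7 plus stable LgBiT, in live-cell Endurazine medium, seeded 16 h before dosing. Compounds at final 1 μM to 0.05 nM for 24 h at 37 °C, then luminescence read. Response normalized to plate controls and fitted with a 4-parameter logistic giving EC50.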

Caspase-1 activity = Caspase-1 activity in human monocyte-derived macrophages, LPS/nigericin stimulation; format: cell-based; settings: Macrophage, 24 h pre-treatment, LPS 3 h then 10 μM nigericin 1 h, read-out: Caspase-1 IC50 (NIG)
Description: as §1

[1] = NEK7 degradation, read-out: NanoBiT Dmax
[2] = NEK7 degradation, read-out: NanoBiT DC50

Chain of NEK7 (Q8TDX7 whole entry): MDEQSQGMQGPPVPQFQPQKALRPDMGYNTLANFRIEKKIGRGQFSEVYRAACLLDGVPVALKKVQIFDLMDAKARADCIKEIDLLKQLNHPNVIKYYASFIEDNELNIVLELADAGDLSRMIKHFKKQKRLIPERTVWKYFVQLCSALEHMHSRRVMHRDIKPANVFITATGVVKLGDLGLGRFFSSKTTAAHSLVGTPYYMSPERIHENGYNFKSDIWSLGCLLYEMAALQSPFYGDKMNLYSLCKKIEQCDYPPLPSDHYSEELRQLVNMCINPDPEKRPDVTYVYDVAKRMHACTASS
Chain of NEK7 (Q96SW2 whole entry): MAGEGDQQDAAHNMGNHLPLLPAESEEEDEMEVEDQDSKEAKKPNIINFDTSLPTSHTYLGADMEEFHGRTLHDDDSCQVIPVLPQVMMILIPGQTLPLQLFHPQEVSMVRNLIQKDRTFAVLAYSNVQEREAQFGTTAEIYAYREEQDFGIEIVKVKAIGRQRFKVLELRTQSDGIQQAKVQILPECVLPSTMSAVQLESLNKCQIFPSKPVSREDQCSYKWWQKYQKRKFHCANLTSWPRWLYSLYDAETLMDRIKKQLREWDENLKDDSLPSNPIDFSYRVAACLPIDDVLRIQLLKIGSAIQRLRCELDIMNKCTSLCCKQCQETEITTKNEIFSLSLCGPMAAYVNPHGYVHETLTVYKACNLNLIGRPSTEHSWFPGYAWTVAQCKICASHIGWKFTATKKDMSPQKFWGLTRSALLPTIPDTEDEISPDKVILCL
Chain of NEK7 (Q16531 2-1140 partner): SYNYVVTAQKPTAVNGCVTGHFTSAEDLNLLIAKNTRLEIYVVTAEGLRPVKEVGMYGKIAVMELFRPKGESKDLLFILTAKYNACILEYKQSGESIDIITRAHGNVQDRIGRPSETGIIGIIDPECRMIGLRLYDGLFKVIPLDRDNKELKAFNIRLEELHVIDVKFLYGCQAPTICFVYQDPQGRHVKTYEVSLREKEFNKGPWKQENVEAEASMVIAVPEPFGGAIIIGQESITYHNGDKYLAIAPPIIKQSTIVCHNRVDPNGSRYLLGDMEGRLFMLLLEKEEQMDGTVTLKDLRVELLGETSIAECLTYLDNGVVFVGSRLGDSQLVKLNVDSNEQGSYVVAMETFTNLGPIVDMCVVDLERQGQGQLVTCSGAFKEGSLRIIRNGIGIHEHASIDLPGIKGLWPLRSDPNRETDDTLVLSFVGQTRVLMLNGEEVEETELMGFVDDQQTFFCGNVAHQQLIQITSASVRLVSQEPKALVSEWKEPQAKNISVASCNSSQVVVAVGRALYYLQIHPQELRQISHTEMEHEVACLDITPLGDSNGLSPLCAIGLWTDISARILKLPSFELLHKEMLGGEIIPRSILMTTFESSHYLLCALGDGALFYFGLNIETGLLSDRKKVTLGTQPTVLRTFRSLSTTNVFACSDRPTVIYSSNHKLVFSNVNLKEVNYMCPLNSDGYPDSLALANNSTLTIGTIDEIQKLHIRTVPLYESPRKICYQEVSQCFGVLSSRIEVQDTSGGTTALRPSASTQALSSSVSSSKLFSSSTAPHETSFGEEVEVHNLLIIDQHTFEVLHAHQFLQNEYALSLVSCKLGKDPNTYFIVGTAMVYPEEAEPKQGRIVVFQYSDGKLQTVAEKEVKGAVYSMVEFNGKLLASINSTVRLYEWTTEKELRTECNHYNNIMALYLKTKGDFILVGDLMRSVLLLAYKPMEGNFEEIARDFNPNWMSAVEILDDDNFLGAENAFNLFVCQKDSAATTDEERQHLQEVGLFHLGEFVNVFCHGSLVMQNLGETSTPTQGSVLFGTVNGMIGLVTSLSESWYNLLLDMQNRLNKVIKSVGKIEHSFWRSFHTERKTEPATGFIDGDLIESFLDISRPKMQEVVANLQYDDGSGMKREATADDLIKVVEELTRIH
Chain of CRBN-DDB1 (Q96SW2 whole entry): as the sequence (Q96SW2 whole entry) above
Chain of CRBN-DDB1 (Q16531 whole entry partner): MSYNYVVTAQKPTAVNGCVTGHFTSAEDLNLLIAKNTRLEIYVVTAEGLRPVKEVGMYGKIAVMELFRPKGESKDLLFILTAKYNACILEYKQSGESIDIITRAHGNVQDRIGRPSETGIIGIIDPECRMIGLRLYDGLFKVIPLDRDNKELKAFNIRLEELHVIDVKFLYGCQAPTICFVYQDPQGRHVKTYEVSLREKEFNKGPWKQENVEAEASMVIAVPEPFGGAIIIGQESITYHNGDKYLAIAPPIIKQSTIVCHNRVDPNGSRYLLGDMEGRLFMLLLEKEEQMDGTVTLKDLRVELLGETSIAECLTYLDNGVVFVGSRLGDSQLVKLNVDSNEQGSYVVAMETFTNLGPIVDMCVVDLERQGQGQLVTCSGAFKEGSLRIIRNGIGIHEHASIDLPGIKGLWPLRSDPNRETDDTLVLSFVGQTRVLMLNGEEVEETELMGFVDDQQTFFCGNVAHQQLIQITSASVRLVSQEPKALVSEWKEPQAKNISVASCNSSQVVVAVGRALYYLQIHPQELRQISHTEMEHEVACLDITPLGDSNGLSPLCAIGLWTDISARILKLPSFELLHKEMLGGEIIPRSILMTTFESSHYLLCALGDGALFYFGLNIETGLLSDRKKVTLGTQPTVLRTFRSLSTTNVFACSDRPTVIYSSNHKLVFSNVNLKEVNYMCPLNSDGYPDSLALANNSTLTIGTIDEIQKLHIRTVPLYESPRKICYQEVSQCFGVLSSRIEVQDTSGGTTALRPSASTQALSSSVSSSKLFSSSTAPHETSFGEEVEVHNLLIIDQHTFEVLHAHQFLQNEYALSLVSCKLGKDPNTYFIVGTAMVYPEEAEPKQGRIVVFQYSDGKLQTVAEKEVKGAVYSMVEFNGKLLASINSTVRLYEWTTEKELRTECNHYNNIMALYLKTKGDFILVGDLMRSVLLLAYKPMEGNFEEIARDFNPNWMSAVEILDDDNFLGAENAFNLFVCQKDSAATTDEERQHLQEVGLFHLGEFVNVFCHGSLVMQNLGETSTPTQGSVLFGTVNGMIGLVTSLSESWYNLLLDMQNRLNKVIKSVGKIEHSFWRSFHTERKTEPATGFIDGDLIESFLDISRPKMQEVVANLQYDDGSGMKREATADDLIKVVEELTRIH

Structure (SMILES) | pEC50 (CRBN-DDB1) | pEC50 (CRBN-DDB1; HTRF class, Cereblon binding) | pIC50 (IL-1β release) | Dmax (NEK7; read-out: NEK7 NanoBiT Dmax) [%] | Dmax (NEK7; [1]) [%] | DC50 (NEK7; read-out: NEK7 NanoBiT DC50) [nM] | DC50 (NEK7; [2]) [nM] | pIC50 (Caspase-1 activity)
Cc1cc(C(C)(C)C(=O)NCc2cc(Cl)c(C3CCC(=O)NC3=O)c(Cl)c2)ccn1 (stereo not shown) [Compound 95] | 7.00 | ≥ 7.00 | 8.92 | 92 | > 75 | 6 | ≤ 100 | 9.09
CC(C)(C(=O)NCc1cc(Cl)c(C2CCC(=O)NC2=O)c(Cl)c1)c1ccccc1 (stereo not shown) [Compound 37, N-(3,5-dichloro-4-(2,6-dioxopiperidin-3-yl)benzyl)-2-methyl-2-phenylpropanamide] | 7.52 | ≥ 7.00 | 9.51 | 97 | > 75 | 1 | ≤ 100 | 9.85
CC(C)(C(=O)NCc1cc(Cl)c(C2CCC(=O)NC2=O)c(Cl)c1)c1ccc(S(N)(=O)=O)cc1 (stereo not shown) [Compound 76] | 7.15 | ≥ 7.00 | 9.08 | 97 | > 75 | 2 | ≤ 100 | 9.31
CC(C)(C(=O)NCc1cc(Cl)c(C2CCC(=O)NC2=O)c(Cl)c1)c1ncc(C(F)F)cn1 (stereo not shown) [Compound 181, N-(3,5-dichloro-4-(2,6-dioxopiperidin-3-yl)benzyl)-2-(5-(difluoromethyl)pyrimidin-2-yl)-2-methylpropanamide] | 6.72 | 6.00 to 7.00 | 8.71 | 93 | > 75 | 5 | ≤ 100 | 8.71
CC(C)(C(=O)NCc1cc(Cl)c(C2CCC(=O)NC2=O)c(Cl)c1)c1ccc2ocnc2c1 (stereo not shown) [Compound 17] | 7.70 | ≥ 7.00 | 10.52 | 98 | > 75 | 0.1 | ≤ 100 | –
CC(C)(C(=O)NCc1cc(Cl)c(C2CCC(=O)NC2=O)c(Cl)c1)c1c(F)cccc1F (stereo not shown) [Compound 94] | 7.15 | ≥ 7.00 | 10.00 | 98 | > 75 | 1 | ≤ 100 | –
CC(C)(C(=O)NCc1cc(Cl)c(C2CCC(=O)NC2=O)c(Cl)c1)c1ccno1 (stereo not shown) [Compound 120, N-(3,5-dichloro-4-(2,6-dioxopiperidin-3-yl)benzyl)-2-(isoxazol-5-yl)-2-methylpropanamide] | 7.00 | ≥ 7.00 | – | 68 | 50 to 75 | 61 | ≤ 100 | –
CC(C)(C(=O)NCc1cc(Cl)c(C2CCC(=O)NC2=O)c(C#N)c1)c1ccccc1 (stereo not shown) [Compound 242, N-(3-chloro-5-cyano-4-(2,6-dioxopiperidin-3-yl)benzyl)-2-methyl-2-phenylpropanamide] | 6.37 | 6.00 to 7.00 | – | 59 | 50 to 75 | 319 | 100 to 1000 | –
CC(C)(C(=O)NCc1cc(Cl)c(C2CCC(=O)NC2=O)c(Cl)c1)c1cc(C(F)F)ncn1 (stereo not shown) [Compound 159] | 6.55 | 6.00 to 7.00 | – | 79 | > 75 | 28 | ≤ 100 | –
CC(C)(C(=O)NCc1cc(Cl)c(C2CCC(=O)NC2=O)c(Cl)c1)c1ccc2ncoc2c1 (stereo not shown) [Compound 10, 2-(benzo[d]oxazol-6-yl)-N-(3,5-dichloro-4-(2,6-dioxopiperidin-3-yl)benzyl)-2-methylpropanamide] | 7.22 | ≥ 7.00 | – | 97 | > 75 | 1 | ≤ 100 | –
CC(C)(C(=O)NCc1cc(Cl)c(C2CCC(=O)NC2=O)c(Cl)c1)c1ccc2ncncc2c1 (stereo not shown) [Compound 33] | 6.92 | 6.00 to 7.00 | – | 96 | > 75 | 2 | ≤ 100 | –
Cc1cnc(C(C)(C)C(=O)NCc2cc(C)c(C3CCC(=O)NC3=O)c(Cl)c2)nc1 (stereo not shown) [Compound 271] | 6.28 | 6.00 to 7.00 | – | 68 | 50 to 75 | 213 | 100 to 1000 | –
CC(C)(C(=O)NCc1cc(Cl)c(C2CCC(=O)NC2=O)c(Cl)c1)c1nccc(CO)n1 (stereo not shown) [Compound 215] | 6.92 | 6.00 to 7.00 | – | 65 | 50 to 75 | 118 | 100 to 1000 | –
CC(C)(C(=O)NCc1ccc(C2CCC(=O)NC2=O)c(Cl)c1)c1cnc(F)nc1 (stereo not shown) [Compound 3] | 6.30 | 6.00 to 7.00 | – | 65 | 50 to 75 | 242 | 100 to 1000 | –
CC(C)(C(=O)NCc1cc(Cl)c(C2CCC(=O)NC2=O)c(Cl)c1)c1ccc2occc2c1 (stereo not shown) [Compound 87] | 7.52 | ≥ 7.00 | – | 97 | > 75 | 0.1 | ≤ 100 | –
CC(C)(C(=O)NCc1cc(Cl)c(C2CCC(=O)NC2=O)c(Cl)c1)c1cnc(Cl)cn1 (stereo not shown) [Compound 248] | 7.15 | ≥ 7.00 | – | 95 | > 75 | 2 | ≤ 100 | –
CC(C)(C(=O)NCc1cc(Cl)c(C2CCC(=O)NC2=O)c(Cl)c1)c1ccc2ncoc2n1 (stereo not shown) [Compound 184] | 6.74 | 6.00 to 7.00 | – | 95 | > 75 | 3 | ≤ 100 | –
Cc1cnc(C(C)(C)C(=O)NCc2cc(F)c(C3CCC(=O)NC3=O)c(Cl)c2)nc1 (stereo not shown) [Compound 253] | 6.85 | 6.00 to 7.00 | – | 45 | ≤ 50 | 778 | 100 to 1000 | –
O=C1CCC(c2c(Cl)cc(CNC(=O)C3(c4ccccc4)COC3)cc2Cl)C(=O)N1 (stereo not shown) [Compound 129] | 7.05 | ≥ 7.00 | – | 90 | > 75 | 22 | ≤ 100 | –
O=C1CCC(c2c(Cl)cc(CNC(=O)C3(c4ncccn4)CCC3)cc2Cl)C(=O)N1 (stereo not shown) [Compound 169, N-(3,5-dichloro-4-(2,6-dioxopiperidin-3-yl)benzyl)-1-(pyrimidin-2-yl)cyclobutane-1-carboxamide] | 6.74 | 6.00 to 7.00 | – | 75 | 50 to 75 | 42 | ≤ 100 | –
CC(C)(C(=O)NCc1cc(Cl)c(C2CCC(=O)NC2=O)c(Cl)c1)c1ccccc1F (stereo not shown) [Compound 26] | 7.15 | ≥ 7.00 | – | 96 | > 75 | 2 | ≤ 100 | –
